Columns and labels:
[1] = parameters: method as in LI-COR product sheet; conditions: unconjugated dye in water; ref LI-COR product sheet; cited from earlier work
[2] = Absorbance and fluorescence emission spectra; type: physicochemical
Method: Absorbance and fluorescence emission spectra were generated using a Tecan Infinite M-1000 PRO multimode microplate reader. Solutions of TLR2L-800 were prepared from a 0.367 mmol/L stock solution in DMSO. Aliquots (2 µL) of TLR2L-800 were spotted on each well of a Tecan NanoQuant plate. The absorbance spectrum of TLR2L-800 (183.5 µmol/L in PBS) was acquired from 230 to 1,000 nm with a wavelength step size of 2 nm. The emission spectrum of TLR2L-800 (0.367 mmol/L in DMSO) was acquired with an excitation wavelength starting from 275 nm and emission wavelengths from 450 to 850 nm with an emission wavelength step size of 2 nm and bandwidth of 5 nm.

- Stokes shift [2]: 15 nm
SMILES: CC1(C)C(=CC=C2CCCC(C=CC3=[N+](CCCCCC(=O)[O-])c4ccc(S(=O)(=O)[O-])cc4C3(C)C)=C2Oc2ccc(S(=O)(=O)[O-])cc2)N(CCCCS(=O)(=O)[O-])c2ccc(S(=O)(=O)[O-])cc21.[Na+].[Na+].[Na+].[Na+] [IRDye800CW]
- absorbance maxima [1]: 774 nm
- emission maxima [1]: 789 nm
